Experimental data published in ChEMBL document CHEMBL1126504, “Synthesis of pyrrolidine oxazoles as thromboxane A2/endoperoxide receptor antagonists” (Bioorg Med Chem Lett, 1993).

Experiments:
[1] = biological target: T1, Thromboxane A2 receptor (Homo sapiens, UniProt P21731); experiment: Binding affinity was determined for Thromboxane A2 receptor in human platelet membrane in presence of [3H]-SQ-29,548 radioligand; type: cell membranes
T1 sequence (P21731 whole entry): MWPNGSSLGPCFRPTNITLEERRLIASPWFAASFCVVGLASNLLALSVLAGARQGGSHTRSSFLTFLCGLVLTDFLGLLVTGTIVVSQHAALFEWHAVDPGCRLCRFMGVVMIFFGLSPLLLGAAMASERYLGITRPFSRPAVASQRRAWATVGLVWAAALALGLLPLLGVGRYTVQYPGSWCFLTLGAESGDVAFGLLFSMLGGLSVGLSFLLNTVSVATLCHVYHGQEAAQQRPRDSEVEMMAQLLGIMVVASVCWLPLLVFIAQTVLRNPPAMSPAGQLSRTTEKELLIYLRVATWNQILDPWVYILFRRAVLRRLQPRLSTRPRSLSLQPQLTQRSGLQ

[2] = species on record: Homo sapiens; experiment: Inhibition of arachidonic acid-induced and ADP-induced platelet aggregation of human platelet rich plasma; type: functional; settings: read-out: I50

Row | IC50 ([2]; Homo sapiens, Plasma) | Structure (SMILES) | also measured
1 | 1700 nM | O=C(O)CCc1ccccc1CN1CCC[C@@H]1c1nc(C(=O)NCCCCC2CCCCC2)co1 | –
2 | 19 nM | O=C(O)CCc1ccccc1CN1CCC[C@H]1c1nc(C(=O)NCCCCC2CCCCC2)co1 | –
3 | 19 nM | O=C(O)CCc1ccccc1C(=O)N1CCC[C@H]1c1nc(C(=O)NCCCCC2CCCCC2)co1 | –

Further lines, the compound ahead of its results:

Row | Structure (SMILES) | IC50 ([2]; Homo sapiens, Plasma) | also measured
4 | O=C(O)CCc1ccccc1CN1CCCC1c1nc(C(=O)NCCCCC2CCCCC2)co1 (stereo not drawn) | – | Kd [1]: 11 nM
5 | O=C(O)CCc1ccccc1CN1C(=O)CCC1c1nc(C(=O)NCCCCC2CCCCC2)co1 (stereo not drawn) | 23000 nM | –
6 | O=C(O)CCc1ccccc1C(=O)N1[C@@H](O)CC[C@H]1c1nc(C(=O)NCCc2ccc(Cl)cc2)co1 | 3700 nM | –
7 | O=C(O)CCc1ccccc1C(=O)N1c2ccccc2CC1c1nc(C(=O)NCCc2ccc(Cl)cc2)co1 (single isomer, unassigned; (+)) | – | IC50 [2]: 250 nM
8 | O=C(O)CCc1ccccc1C(=O)N1c2ccccc2CC1c1nc(C(=O)NCCc2ccc(Cl)cc2)co1 (single isomer, unassigned; (-)) | – | IC50 [2]: 3700 nM
